Laboratory results taken from PMC9962735, “Synthesis and Cytotoxic Activity of the Derivatives of N-(Purin-6-yl)aminopolymethylene Carboxylic Acids and Related Compounds” (Molecules, 2023).

Legend:
[1] = MTT cytotoxicity assay, MDA-MB-231; assay type: cell-based, human; settings: human; CC50 of WI-38 divided by CC50 of MDA-MB-231; read-out: SCI (selective cytotoxicity index)
Excerpt: (§1) The cytotoxicity of the test compounds was studied using the MTT assay against a number of cell lines: CT-26 murine colon carcinoma, 4T1 murine mammary carcinoma, MDA-MB-231 human breast adenocarcinoma, COLO201 human colorectal adenocarcinoma, HepG2 human hepatocellular carcinoma, A549 human non-small-cell lung carcinoma, SK-BR-3 human breast adenocarcinoma, SNU-1 human gastric carcinoma, Jurkat human acute T-lymphoblastic leukemia, and WI-38 human lung fibroblasts (normal cells). Doxorubicin (Dox) was used as a reference drug. Cells were incubated with test compounds for 72 h.
(§2) Cells were seeded in flat-bottomed 96-well plates at 10,000 cells per well (for A549, SNU-1, WI-38, CT-26, MDA-MB-231, 4T1, and HepG2 cells) or 20,000 cells per well (for SK-BR-3, Jurkat, and COLO201 cells) and cultivated in complete culture mediums (for composition of each medium, see the Supplementary Materials, Table S1) in a CO2 incubator at 37 °C. At the first stage of this study, the test compounds dissolved in DMSO were added to the wells with cells at final concentrations from 1 × 10^–4 to 1 × 10^–10 mol/L (A549, SK-BR-3, SNU-1, Jurkat, and WI-38) or 1 × 10^–3 to 1 × 10^–8 mol/L (CT-26, MDA-MB-231, 4T1, COLO201, and HepG2); DMSO concentration in the wells was finally 1%. A complete cultural medium and DMSO were added to the control wells at the same concentration as in the experimental wells; 0.1% Triton X-100 solution (10 µL) was added to the corresponding wells as a non-specific positive control. After adding the test compounds, the cells were incubated for 72 h in an atmosphere containing 5% CO2. After that, the nutrient medium was removed from each well (in the case of SK-BR-3, Jurkat, and COLO201, plates were pre-centrifuged at 1500 rpm for 6 min). A solution of the commercial anticancer agent Doxorubicin (Dox, Sigma-Aldrich, St. Louis, MO, USA) in DMSO was used as a reference drug. Then, 150 µL of a complete medium with the MTT reagent (PanEco, Moscow, Russia) at a concentration of 0.5 mg/mL was added and incubated for 2 h. Formazan crystals were dissolved in DMSO (200 µL) and the absorbance in the wells was measured at 540 nm and a reference wavelength of 650 nm (Sunrise, Tecan, Groding, Austria). Experiments were performed in three parallel runs. Cell viability after incubation in the presence of test compounds was calculated in relation to cell viability in the control wells according to the Formula (1):Cell viability (%) = (Aexp/Ac) × 100,(1) where Aexp is the optical density of solutions in the wells containing test compounds; Ac is the optical density of solutions in control wells without test compounds. For detailed information on cell viability of various cell lines, see the Supplementary Materials, Figures S21–S26.
(§3) At the second stage of this study, in order to more accurately calculate the CC50 (the half maximal inhibitory concentration), the cytotoxic effect of test compounds was evaluated at concentrations close to CC50 found at the first stage. The study of the cytotoxic activity of each substance towards the cells of each line was carried out in triplicate; the mean value was used to calculate CC50. The CC50 values were determined by non-linear regression analysis using Graph-Pad Prism7.

[2] = system: MDA-MB-231 human breast adenocarcinoma; test: MTT cytotoxicity assay, MDA-MB-231; assay type: cell-based; settings: Homo sapiens; for viability at 100 µM: MDA-MB-231, 1 × 10^–4 M, mean ± SD (n = 3), read-out: Cell viability; for CC50: MDA-MB-231, 72 h incubation, MTT, n = 3
Excerpt: as §1, §2, §3

[3] = MTT cytotoxicity assay, WI-38 normal cells; assay type: cell-based; settings: human, WI-38 lung fibroblasts (normal cells); for CC50 at 72 h: WI-38, 72 h incubation, MTT; for viability at 72 h: WI-38, 1 × 10^–4 M, mean ± SD (n = 3), read-out: Cell viability
Excerpt: as §1, §2, §3

[4] = MTT cytotoxicity assay, A549; assay type: cell-based, human; settings: human, read-out: SCI (selective cytotoxicity index)
Excerpt: as §1, §2, §3

[5] = system: A549 human non-small-cell lung carcinoma; test: MTT cytotoxicity assay, A549; assay type: cell-based; settings: Homo sapiens; for CC50: A549, 72 h, A549, 72 h incubation, MTT; for viability at 100 µM: A549, 1 × 10^–4 M, mean ± SD (n = 3)
Excerpt: as §1, §2, §3

[6] = MTT cytotoxicity assay, HepG2; assay type: cell-based, human; settings: human; CC50 of WI-38 divided by CC50 of HepG2; read-out: SCI (selective cytotoxicity index)
Excerpt: as §1, §2, §3

[7] = system: HepG2 human hepatocellular carcinoma; test: MTT cytotoxicity assay, HepG2; assay type: cell-based; settings: Homo sapiens; for viability at 100 µM: HepG2, 1 × 10^–4 M, mean ± SD (n = 3), read-out: Cell viability; for CC50: HepG2, 72 h incubation, MTT, n = 3
Excerpt: as §1, §2, §3

[8] = MTT cytotoxicity assay, SNU-1; assay type: cell-based, human; settings: human, read-out: SCI (selective cytotoxicity index)
Excerpt: as §1, §2, §3

[9] = system: SNU-1 human gastric carcinoma; test: MTT cytotoxicity assay, SNU-1; assay type: cell-based; settings: Homo sapiens; for CC50: SNU1, 72 h, SNU-1, 72 h incubation, MTT; for viability at 100 µM: SNU1, SNU-1, 1 × 10^–4 M, mean ± SD (n = 3), read-out: Cell viability
Excerpt: as §1, §2, §3

[10] = MTT cytotoxicity assay, 4T1; assay type: cell-based, murine; settings: mouse (4T1) and human (WI-38); CC50 of WI-38 divided by CC50 of 4T1; read-out: SCI (selective cytotoxicity index)
Excerpt: as §1, §2, §3

[11] = system: 4T1 murine mammary carcinoma; test: MTT cytotoxicity assay, 4T1; assay type: cell-based; settings: Mus musculus; for viability at 100 µM: 4T1, 1 × 10^–4 M, mean ± SD (n = 3), read-out: Cell viability; for CC50: 4T1, 72 h incubation, MTT, n = 3
Excerpt: as §1, §2, §3

[12] = system: SK-BR-3 human breast adenocarcinoma; test: MTT cytotoxicity assay, SK-BR-3; assay type: cell-based; settings: Homo sapiens; for CC50: SK-BR-3, 72 h, SK-BR-3, 72 h incubation, MTT; for viability at 100 µM: SK-BR-3, 1 × 10^–4 M, mean ± SD (n = 3), read-out: Cell viability
Excerpt: as §1, §2, §3

[13] = MTT cytotoxicity assay, SK-BR-3; assay type: cell-based, human; settings: human, read-out: SCI (selective cytotoxicity index)
Excerpt: as §1, §2, §3

[14] = MTT cytotoxicity assay, COLO201; assay type: cell-based, human; settings: human; CC50 of WI-38 divided by CC50 of COLO201; read-out: SCI (selective cytotoxicity index)
Excerpt: as §1, §2, §3

[15] = system: COLO201 human colorectal adenocarcinoma; test: MTT cytotoxicity assay, COLO201; assay type: cell-based; settings: Homo sapiens, COLO 201; for viability at 100 µM: COLO201, 1 × 10^–4 M, mean ± SD (n = 3), read-out: Cell viability; for CC50: COLO201, 72 h incubation, MTT, n = 3
Excerpt: as §1, §2, §3

[16] = CC50 of WI-38 divided by CC50 of A549 (Table 1)
[17] = CC50 of WI-38 divided by CC50 of SNU-1 (Table 1)
[18] = CC50 of WI-38 divided by CC50 of SK-BR-3 (Table 1)

Structure (SMILES) | selectivity ratio at 72 h [1] | viability at 100 µM [2] [%] | CC50 [2] [µM] | CC50 at 72 h ([3]; n = 3) [µM] | viability at 72 h [3] [%] | selectivity ratio at 72 h [4, 16] | CC50 ([5]; n = 3 (Table 1)) [µM] | viability at 100 µM [5] [%] | selectivity ratio at 72 h [6] | viability at 100 µM [7] [%] | CC50 [7] [µM] | selectivity ratio at 72 h [8, 17] | CC50 ([9]; n = 3 (Table 1)) [µM] | viability at 100 µM [9] [%] | selectivity ratio at 72 h [10] | viability at 100 µM [11] [%] | CC50 [11] [µM] | CC50 ([12]; n = 3 (Table 1)) [µM] | viability at 100 µM [12] [%] | selectivity ratio at 72 h [13, 18] | further results
CC1COc2c(ccc(F)c2F)N1C(=O)CCCCCCCNc1ncnc2[nH]cnc12 (centres unmarked) [Compound 1c] | 1.2 | 5 ± 5 | 44 | 50 | 21 ± 3 | 1.2 | 43 | 7 ± 1 | 5.9 | 2 ± 1 | 8.5 | 7.1 | 7 | 6 ± 2 | 2.2 | 2 ± 2 | 23 | 75 | 8 | 0.67 | selectivity ratio at 72 h [14]: 73; viability at 100 µM [15]: 2 ± 1%; CC50 [15]: 0.68 µM
CC1COc2c(ccc(F)c2F)N1C(=O)CCCCCCCCCCNc1ncnc2[nH]cnc12 (centres unmarked) [Compound 1d] | 0.48 | 4 ± 2 | 44 | 21 | 21 ± 7 | 0.49 | 43 | 6 ± 1 | 2.5 | 2 ± 1 | 8.5 | 3 | 7 | 5 ± 1 | 0.91 | 2 ± 1 | 23 | 75 | 8 ± 2 | 0.28 | CC50 at 72 h ([3]; n = 3 (Table 3)): 21 µM; selectivity ratio at 72 h ([4]; CC50 of WI-38 divided by CC50 of A549 (Table 3)): 1; CC50 ([5]; n = 3 (Table 3)): 21 µM; selectivity ratio at 72 h ([8]; CC50 of WI-38 divided by CC50 of SNU-1 (Table 3)): 10; CC50 ([9]; n = 3 (Table 3)): 2 µM; CC50 ([12]; n = 3 (Table 3)): 28 µM; selectivity ratio at 72 h ([13]; CC50 of WI-38 divided by CC50 of SK-BR-3 (Table 3)): 0.75; selectivity ratio at 72 h [14]: 31; viability at 100 µM [15]: 1 ± 1%; CC50 [15]: 0.68 µM
